Experimental data published in patent publication US8658794B2, “8-methyl-1-phenyl-imidazol[1,5-a]pyrazine compounds as Lck inhibitors and uses thereof” (Merck Sharp & Dohme B.V., priority 2010, dated 2014).

target: T1, N-terminal His6-tagged recombinant full-length human Lck (Homo sapiens, UniProt P06239); test: Lck IMAP assay; type: biochemical; details: ATP 6 μM (KM,ATP), enzyme pre-incubated with compounds for 60 minutes, values given as bins
T1 construct: N-terminal His6-tagged recombinant full-length human Lck; His6 (N); purchased Millipore
Procedure, shortened: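 Full-length His6-Lck at 0.1 U/ml was preincubated 60 min with compound, then run 120 min at room temperature with 100 nM fluorescein-p34cdc2 peptide and 6 μM ATP (KM) in pH 7.2 Tris buffer. Read-out by IMAP fluorescence polarization; pIC50 from ten-point √10 dilutions starting at 10^-6 M.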

T1 sequence (P06239 whole entry): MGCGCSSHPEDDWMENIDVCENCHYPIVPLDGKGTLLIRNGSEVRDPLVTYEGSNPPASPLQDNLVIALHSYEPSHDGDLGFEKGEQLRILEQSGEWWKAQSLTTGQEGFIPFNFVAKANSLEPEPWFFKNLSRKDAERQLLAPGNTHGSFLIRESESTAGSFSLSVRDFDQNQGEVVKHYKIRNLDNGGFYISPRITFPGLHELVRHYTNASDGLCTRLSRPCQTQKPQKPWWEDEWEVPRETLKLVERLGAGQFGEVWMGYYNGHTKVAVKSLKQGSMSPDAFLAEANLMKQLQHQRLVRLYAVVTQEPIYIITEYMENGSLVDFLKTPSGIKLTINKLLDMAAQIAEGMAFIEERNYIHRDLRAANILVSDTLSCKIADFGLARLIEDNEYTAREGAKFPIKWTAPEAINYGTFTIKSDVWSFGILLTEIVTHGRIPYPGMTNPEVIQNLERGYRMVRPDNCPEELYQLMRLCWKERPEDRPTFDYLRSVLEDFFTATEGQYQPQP

IC50, ≤ 10 nM:
COc1ccc2c(C(=O)Nc3ccc(-c4nc([C@H]5CC[C@H](N6CCN(C)CC6)CC5)n5ccnc(C)c45)cc3OC)n[nH]c2c1 [Example 66, 6-Methoxy-N-(2-methoxy-4-(8-methyl-3-((trans)-4-(4-methylpiperazin-1-yl)cyclohexyl)imidazo[1,5-a]pyrazin-1-yl)phenyl)-1H-indazole-3-carboxamide]
COc1cc(-c2nc([C@H]3CC[C@H](N4CCN(C)CC4)CC3)n3ccnc(C)c23)ccc1NC(=O)c1cc2cc(Cl)cnc2n1C [Example 67, 5-Chloro-N-(2-methoxy-4-(8-methyl-3-((trans)-4-(4-methylpiperazin-1-yl)cyclohexyl)imidazo[1,5-a]pyrazin-1-yl)phenyl)-1-methyl-1H-pyrrolo[2,3-b]pyridine-2-carboxamide]
COc1cc(-c2nc([C@H]3CC[C@H](CNC(C)=O)CC3)n3ccnc(C)c23)ccc1NC(=O)c1cc2c(OC)cccc2n1C [Example 68, N-(4-(3-((trans)-4-(acetamidomethyl)cyclohexyl)-8-methylimidazo[1,5-a]pyrazin-1-yl)-2-methoxyphenyl)-4-methoxy-1-methyl-1H-indole-2-carboxamide]
CCC[C@H](C)OC(=O)Nc1ccc(-c2nc([C@H]3CC[C@H](CNC(C)=O)CC3)n3ccnc(C)c23)cc1OC [Example 69, (S)-pentan-2-yl 4-(3-((trans)-4-(acetamidomethyl)cyclohexyl)-8-methylimidazo[1,5-a]pyrazin-1-yl)-2-methoxyphenylcarbamate]
CCC[C@H](C)OC(=O)Nc1ccc(-c2nc([C@H]3CC[C@H](CNC(=O)OC)CC3)n3ccnc(C)c23)cc1OC [Example 70]
COc1cc(-c2nc(C3CCC(=O)CC3)n3ccnc(C)c23)ccc1NC(=O)c1cc2c(OC)cccc2n1C [Example 71, 4-Methoxy-N-(2-methoxy-4-(8-methyl-3-(4-oxocyclohexyl)imidazo[1,5-a]pyrazin-1-yl)phenyl)-1-methyl-1H-indole-2-carboxamide]
CNC[C@]1(O)CC[C@H](c2nc(-c3ccc(NC(=O)c4cc5c(OC)cccc5n4C)c(OC)c3)c3c(C)nccn32)CC1 [Example 72, N-(4-(3-((trans)-4-hydroxy-4-((methylamino)methyl)cyclohexyl)-8-methylimidazo[1,5-a]pyrazin-1-yl)-2-methoxyphenyl)-4-methoxy-1-methyl-1H-indole-2-carboxamide]
COc1cc(-c2nc(C3CC(=O)N(C)C3)n3ccnc(C)c23)ccc1NC(=O)c1cc2c(OC)cccc2n1C (stereo not shown) [Example 73, 4-Methoxy-N-(2-methoxy-4-(8-methyl-3-(1-methyl-5-oxopyrrolidin-3-yl)imidazo[1,5-a]pyrazin-1-yl)phenyl)-1-methyl-1H-indole-2-carboxamide]
COc1cc(-c2nc([C@H]3CC[C@H](N4CCN(C)C(=O)C4)CC3)n3ccnc(C)c23)ccc1NC(=O)c1cc2c(OC)cccc2n1C [Example 74, 4-Methoxy-N-(2-methoxy-4-(8-methyl-3-((trans)-4-(4-methyl-3-oxopiperazin-1-yl)cyclohexyl)imidazo[1,5-a]pyrazin-1-yl)phenyl)-1-methyl-1H-indole-2-carboxamide]
COc1cc2cc(C(=O)Nc3ccc(-c4nc([C@H]5CC[C@H](N6CCN(C)CC6)CC5)n5ccnc(C)c45)cc3OC)n(C)c2cn1 [Example 75, 5-Methoxy-N-(2-methoxy-4-(8-methyl-3-((trans)-4-(4-methylpiperazin-1-yl)cyclohexyl)imidazo[1,5-a]pyrazin-1-yl)phenyl)-1-methyl-1H-pyrrolo[2,3-c]pyridine-2-carboxamide]
